Test results reported in patent publication US8389231B2, “Assays, method and compositions that exploit a mycobacterial iron acquistion pathway in cells” (The Trustees of Princeton University, priority 2005, dated 2013).

How the values were obtained:
[1] = system: macrophages (THP-1 cell line); assay: MJ-mediated iron acquisition: conversion of MJ to Fe-MJ in macrophage culture, HPLC analysis; assay type: cell-based, human; details: for effect on basal recovery of Fe-MJ: 10 μM metal transferrin added to macrophages with MJ; for stimulation of MJ-mediated iron acquisition from macrophages (conversion of MJ to Fe-MJ): 10 μM transferrin species added to macrophages with MJ, 37° C.
Description: Cell cultures. The THP-1 cell line (a macrophage-like monocyte) was purchased from American Type Culture Collection (ATCC) and used for all protocols. The cells were cultured into PRMI1640 (ATCC) supplemented with 10% fetal bovine serum (ATCC), 2 mM L-glutamine and 0.02 mM penicillin-streptomycin, and maintained at a cell concentration between 2×10^5 and 1×10^6 cells/ml at 37° C. in a 5% CO2 air atmosphere by addition of fresh growth medium (as described above) twice per week. Either PRMI1640 or phenol-red-free PRMI1640 was used with the supply of 2 mM L-glutamine and 0.02 mM penicillin-streptomycin, but in the absence of 10% FBS, for the experiments with MJ.
HPLC analysis for Fe-MJ and MJ. Varian ProStar & PrepStar HPLC and a Waters Delta Pak 5μ C18-300 Åcolumn were used with 3:7 H2O:CH3CN as eluting solution under all conditions. The intensities of the peak with retention time 43 min at 460 nm were integrated and normalized to the amount of Fe-MJ. Macrophages (final concentration, 1×10^5 cells/ml) or 0.05 mM DMPC vesicles as controls were preincubated in RPMI 1640 medium at 37° C. for 4 h, followed by the addition of MJ (final concentration, 1.5 μM). The media were incubated for 24 h at various conditions, such as in the presence or absence of hTf, at varied temperatures or in the presence of different concentrations of desferrioxamine mesylate salt. Three aliquots (3×4 ml) of the medium were collected and lysed by dunces. Lipophilic components were extracted into 3.5 ml CHCl3 and the mixture was centrifuged at 2500 r.p.m for 8 min. The organic layer extraction 2.5 ml was subject to a stream of argon to vaporize CHCl3. The dried mixture was dissolved into 400 μl CH3CN, of which 200 μl solutions was injected into HPLC. The peak intensity of 100% conversion to Fe-MJ was obtained by incubating 1.5 μM Fe-MJ into the medium, following the same workup above.

[2] = Lipid-aqueous-phase partition coefficient using lipid vesicles as model membrane; assay type: physicochemical
macrophage cells = assay: Cell-aqueous-phase distributions of MJ and Fe-MJ; assay type: in vitro ADME, human
Description: Cell-aqueous-phase distributions of MJ and Fe-MJ. After the conversion from MJ to Fe-MJ, aqueous-phase Fe-MJ was obtained by separating the supernatant medium from macrophage cells via the centrifugation with 1500 r.p.m for 5 min. The aliquot of recovered supernatant was subject to CHCl3 extract and HPLC analysis as described above. For measurements of the cell/aqueous-phase partition coefficient of Fe-MJ, Fe-MJ 1.0 μM was incubated into RPMI 1640 medium at 37° C. for half an hour in the presence of various concentrations of macrophage cells. Then the supernatant was separated and analyzed as described above. For the partition coefficient of MJ, prior to the HPLC analysis, a 10-fold ferric citrate excess was added into a MJ-CH3CN solution, followed by a two-hr incubation for the complete conversion from MJ to Fe-MJ. Aqueous-phase and total MJ and Fe-MJ, Ctotal and Cw, respectively, were used to calculate Cv/Cw according to the relationship: Cv/Cw=(Ctotal−Cw)/Cw. The partition coefficient, K was defined according to the following equation: Cv/Cw=K×[Cell], in which [Cell] is the concentration of macrophage cells (cells/ml) and Cv is the amount of lipid-phase MJ or Fe-MJ.

**Q.** Which “effect on basal recovery of Fe-MJ” value [1] does the source give for “Al(III) transferrin: Al(III) transferrin complex prepared from apo transferrin, Al(NO3)3 and nitrilotriacetic acid” here?
**A.** Its value is “greatly suppressed”.

**Q.** And the “stimulation of MJ-mediated iron acquisition from macrophages (conversion of MJ to Fe-MJ)” value (shortened to “stimulation”) [1]?
**A.** The value was “failed to stimulate”.

**Q.** For Co-Tf: Cobalt(III) transferrin, which “stimulation” value [1] is on record?
**A.** The value was “more effective agonist than hTf”.

**Q.** Which results are given for “Ga(III) transferrin: Ga(III) transferrin complex prepared from apo transferrin”?
**A.** effect on basal recovery of Fe-MJ [1]: greatly suppressed; stimulation of MJ-mediated iron acquisition from macrophages (conversion of MJ to Fe-MJ) [1]: failed to stimulate

**Q.** For ferric mycobactin J [Fe-MJ], which “lipid-aqueous-phase partition coefficient Kx” value [2] is on record?
**A.** The value was 3×10^5.

**Q.** And the “Fe-MJ from the aqueous phase as share of total recovered Fe-MJ” value (macrophage cells; after 24-hr incubation of MJ in macrophage culture (1×10^5 cells/ml), presence or absence of hTf)?
**A.** The value was 80%.

**Q.** What about the “cell-aqueous-phase partition coefficient K (Cv/Cw=K×[Cell])” value (macrophage cells; macrophage cells, RPMI 1640, 37° C.) of the same substance?
**A.** The value was 9.8×10^−7 ml/cell.

**Q.** With “hTf: fully saturated holo-transferrin (human transferrin), obtained from Sigma” as the substance, how does the “hTf-triggered conversion at low temperatures” value ([1]; 10 μM hTf, low temperatures (4° C. level similar to absence of hTf)) read?
**A.** Its value is “significantly suppressed”.

**Q.** What about the “stimulation” value [1] of the same substance?
**A.** Its value is “nearly doubled”.
